Results on three compounds are retold here after patent publication US6121284A, “2,3-bridged 1,4-dihydropyridines, and their use as medicaments” (Bayer Aktiengesellschaft, priority 1994, dated 2000).

This test concerns C6-BU1-glioma cells. In words: 86Rubidium efflux from C6-BU1-glioma cells. The class given is cell-based. As to conditions: Rattus norvegicus, C6-BU-1; 1 μM test substance applied; increase in 86Rb efflux above basal efflux caused by ionomycin set at 100%; read-out: residual efflux. How it is done: ^86 Rubidium Efflux from C6-BU1-glioma cells
The experiments were carried out in accordance with the method described by Tas et al. (Neurosci. Lett. 94, 279-284, (1988)), with slight changes. The increase in efflux above the basal efflux caused by ionomycin is calculated from the data and set at 100%. The stimulations in the presence of test substances are then based on this value.
Turning to `CC1=C(C(=O)OC(C)C)C(c2cccc(Cl)c2Cl)C2=C(CCCC2=O)N1C` (stereo not drawn) [Example 1, Isopropyl 4-(2,3-dichlorophenyl)-1,2-dimethyl-5-oxo-1,4,5,7,8-hexahydroquinoline-3-carboxylate], the activity at 1 µM stood at 38%.

For `COC(=O)C1=C(C)N(C)C2=C(C(=O)OC2)C1c1ccc(Cl)cc1` (stereo not drawn) [Example 8, Methyl1,4,5,7-tetrahydro-4-(4-chlorophenyl)-1,2-dimethyl-7-oxo-furo-[3,4b]-pyridine-3-carboxylate], the activity at 1 µM stood at 53%.

Turning to `COC(=O)C1=C(C)N(C)C2=C(C(=O)OC2)C1c1cccc(F)c1F` (stereo not drawn) [Example 11, Methyl 1,4,5,7-tetrahydro-4-(2,3-difluorophenyl)-1,2-dimethyl-5-oxo-furo-[3,4b]-pyridine-3-carboxylate], the activity at 1 µM amounted to 73%.
